Measurements: US10646488B2 (Araxes Pharma LLC, priority 2016, dated 2020)
Further: test concentration or dose not given here.

The compounds below were run against T1, KRAS G12C 1-169, his-tagged protein, GDP-loaded (Homo sapiens, UniProt P01116, G12C) (assay: Covalent binding (% modification) to KRAS G12C by mass spectrometry). Conditions: covalent binding to KRAS G12C after a ten minute incubation period.
T1 construct: KRAS G12C 1-169, his-tagged protein, GDP-loaded
For `C=CC(=O)N1C[C@H](C)N(c2nc(OCCN3CC(F)(F)C3)nc3c(F)c(-c4c(O)cccc4F)c(Cl)cc23)C[C@H]1C` (atropisomer, axis not shown) [Compound 83, 1-((2R,5S)-4-((R)-6-chloro-2-(2-(3,3-difluoroazetidin-1-yl)ethoxy)-8-fluoro-7-(2-fluoro-6-hydroxyphenyl)quinazolin-4-yl)-2,5-dimethyl-piperazin-1-yl) prop-2-en-1-one], the Binding % was “+ (+ indicates binding activity up to 50%)”. In the case of `C=CC(=O)N1C[C@H](C)N(c2nc(N3CC(N(C)C)C3)nc3c(F)c(-c4c(C)ccc5cn[nH]c45)c(Cl)cc23)C[C@H]1C` (atropisomer, axis not shown) [Compound 72, 1-((2R,5S)-4-((R)-6-chloro-2-(3-(dimethylamino)azetidin-1-yl)-8-fluoro-7-(6-methyl-1H-indazol-7-yl)quinazolin-4-yl)-2,5-dimethyl-piperazin-1-yl) prop-2-en-1-one], the Binding % is reported as “+++ (+++ indicates binding activity greater than 90%)”. `C=CC(=O)N1[C@H](C)CN(c2nc(N)nc3c(F)c(-c4c(C)ccc5cn[nH]c45)c(Cl)cc23)C[C@@H]1C` [Compound 15, 1-((2S,6R)-4-(2-amino-6-chloro-8-fluoro-7-(6-methyl-1H-indazol-7-yl)quinazolin-4-yl)-2,6-dimethyl-piperazin-1-yl) prop-2-en-1-one] was tested, and the Binding % was “++ (++ indicates binding activity from 50 to 90%)”. In the case of `C=CC(=O)N1C[C@H](C)N(c2nc(OCCN(CC)CC)nc3c(F)c(-c4c(C)ccc5[nH]ncc45)c(Cl)cc23)C[C@H]1C` [Compound 77, 1-((2R,5S)-4-(6-chloro-2-(2-(diethylamino)ethoxy)-8-fluoro-7-(5-methyl-1H-indazol-4-yl)quinazolin-4-yl)-2,5-dimethyl-piperazin-1-yl) prop-2-en-1-one], the Binding % is reported as “+++ (+++ indicates binding activity greater than 90%)”. With `C=CC(=O)N1C[C@H](C)N(c2nc(OCCN3CC(F)(F)C3)nc3c(F)c(-c4c(C)ccc5[nH]ncc45)c(Cl)cc23)C[C@H]1C` [Compound 55, 1-((2R,5S)-4-(6-chloro-2-(2-(3,3-difluoroazetidin-1-yl)ethoxy)-8-fluoro-7-(5-methyl-1H-indazol-4-yl)quinazolin-4-yl)-2,5-dimethyl-piperazin-1-yl) prop-2-en-1-one] the Binding % was “+++ (+++ indicates binding activity greater than 90%)”. `C=CC(=O)N1CCN(c2nc(N3CC(N(C)C)C3)nc3c(F)c(-c4c(O)cccc4F)c(Cl)cc23)C[C@H]1C` (atropisomer, axis not shown) [Compound 60, 1-((R)-4-((S)-6-chloro-2-(3-(dimethylamino)azetidin-1-yl)-8-fluoro-7-(2-fluoro-6-hydroxyphenyl)quinazolin-4-yl)-2-methyl-piperazin-1-yl) prop-2-en-1-one] was tested, and the Binding % was “+++ (+++ indicates binding activity greater than 90%)”. `C=CC(=O)N1C[C@@H](C)N(c2nc(N3CC(N(C)C)C3)nc3c(F)c(-c4c(C)ccc5cn[nH]c45)c(Cl)cc23)[C@@H](C)C1` [Compound 44, 1-((3S,5R)-4-(6-chloro-2-(3-(dimethylamino)azetidin-1-yl)-8-fluoro-7-(6-methyl-1H-indazol-7-yl)quinazolin-4-yl)-3,5-dimethyl-piperazin-1-yl) prop-2-en-1-one] was tested, and the Binding % was “++ (++ indicates binding activity from 50 to 90%)”. For `C=CC(=O)N1C[C@@H](C)N(c2nc(N3CC(CO)C3)nc3c(F)c(-c4c(O)cccc4F)c(Cl)cc23)[C@@H](C)C1` [Compound 64, 1-((3R,5S)-4-(6-chloro-8-fluoro-7-(2-fluoro-6-hydroxyphenyl)-2-(3-(hydroxy-methyl)azetidin-1-yl)quinazolin-4-yl)-3,5-dimethyl-piperazin-1-yl) prop-2-en-1-one], the Binding % was “++ (++ indicates binding activity from 50 to 90%)”. With `C=CC(=O)N1[C@H](C)CN(c2nc(NC3CCN(C4CC4)CC3)nc3c(F)c(-c4c(C)ccc5cn[nH]c45)c(Cl)cc23)C[C@@H]1C` [Compound 19, 1-((2S,6R)-4-(6-Chloro-2-((1-Cyclopropylpiperidin-4-Yl)Amino)-8-Fluoro-7-(6-Methyl-1H-Indazol-7-Yl)Quinazolin-4-Yl)-2,6-Dimethylpiperazin-1-Yl)Prop-2-En-1-One] the Binding % was “++ (++ indicates binding activity from 50 to 90%)”.

Same assay, conditions: covalent binding to KRAS G12C after a three minute incubation period
With `C=CC(=O)N1C[C@H](C)N(c2nc(N3CC(N(C)CC)C3)nc3c(F)c(-c4c(O)cccc4F)c(Cl)cc23)C[C@H]1C` (atropisomer, axis not shown) [Compound 154, 1-((2R,5S)-4-(6-chloro-2-(3-(ethyl(methyl)amino)azetidin-1-yl)-8-fluoro-7-((S)-2-fluoro-6-hydroxyphenyl)quinazolin-4-yl)-2,5-dimethyl-piperazin-1-yl) prop-2-en-1-one] the Binding % was “+++ (+++ indicates binding activity greater than 90%)”. With `C=CC(=O)N1C[C@H](C)N(c2nc(N3CC(N(CC)CC)C3)nc3c(F)c(-c4c(O)cccc4F)c(Cl)cc23)C[C@H]1C` [Compound 126, 1-((2R,5S)-4-(6-chloro-2-(3-(diethylamino)azetidin-1-yl)-8-fluoro-7-(2-fluoro-6-hydroxyphenyl)quinazolin-4-yl)-2,5-dimethyl-piperazin-1-yl) prop-2-en-1-one] the Binding % was “+++ (+++ indicates binding activity greater than 90%)”. With `C=CC(=O)N1C[C@H](C)N(c2nc(N3CC(N(C)CC)C3)nc3c(F)c(-c4c(O)cccc4F)c(Cl)cc23)C[C@H]1C` [Compound 102, 1-((2R,5S)-4-(6-chloro-2-(3-(ethyl(methyl)amino)azetidin-1-yl)-8-fluoro-7-(2-fluoro-6-hydroxyphenyl)quinazolin-4-yl)-2,5-dimethyl-piperazin-1-yl) prop-2-en-1-one] the Binding % was “++ (++ indicates binding activity from 50 to 90%)”. `C=CC(=O)N1C[C@H](C)N(c2nc(N3CC(N(C)C)C3)nc3c(F)c(-c4c(O)cccc4F)c(C(F)(F)F)cc23)C[C@H]1C` [Compound 206, 1-((2R,5S)-4-(2-(3-(dimethylamino)azetidin-1-yl)-8-fluoro-7-(2-fluoro-6-hydroxyphenyl)-6-(trifluoromethyl)quinazolin-4-yl)-2,5-dimethyl-piperazin-1-yl) prop-2-en-1-one] was tested, and the Binding % was “+++ (+++ indicates binding activity greater than 90%)”. With `C=CC(=O)N1C[C@H](C)N(c2nc(N3CC(N(C)C)C3)nc3c(F)c(-c4ccc(Cl)cc4F)c(Cl)cc23)C[C@H]1C` [Compound 161, 1-((2R,5S)-4-(6-chloro-7-(4-chloro-2-fluoro-phenyl)-2-(3-(dimethylamino)azetidin-1-yl)-8-fluoroquinazolin-4-yl)-2,5-dimethyl-piperazin-1-yl) prop-2-en-1-one] the Binding % was “+ (+ indicates binding activity greater than 0% and up to 50%)”. In the case of `C=CC(=O)N1CCN(c2nc(N3CC(N(CC)CC)C3)nc3c(F)c(-c4c(O)cccc4F)c(Cl)cc23)[C@@H](C)C1` [Compound 174, 1-((3S)-4-(6-chloro-2-(3-(diethylamino)azetidin-1-yl)-8-fluoro-7-(2-fluoro-6-hydroxyphenyl)quinazolin-4-yl)-3-methyl-piperazin-1-yl) prop-2-en-1-one], the Binding % is reported as “+++ (+++ indicates binding activity greater than 90%)”. In the case of `[2H]C([2H])([2H])N(C1CN(c2nc(N3C[C@@H](C)N(C(=O)C=C)C[C@@H]3C)c3cc(Cl)c(-c4c(C)ccc5[nH]ncc45)c(F)c3n2)C1)C([2H])([2H])[2H]` (atropisomer, axis not shown) [Compound 226, 1-((2R,5S)-4-(6-chloro-2-(3-(bis(triduetero-methyl)amino)azetidin-1-yl)-8-fluoro-7-((R)-5-methyl-1H-indazol-4-yl)quinazolin-4-yl)-2,5-dimethyl-piperazin-1-yl) prop-2-en-1-one], the Binding % is reported as “+++ (+++ indicates binding activity greater than 90%)”. For `C=CC(=O)N1C[C@H](C)N(c2nc(N3CC(NC)C3)nc3c(F)c(-c4c(C)ccc5cn[nH]c45)c(Cl)cc23)C[C@H]1C` [Compound 100, 1-((2R,5S)-4-(6-chloro-8-fluoro-7-(6-methyl-1H-indazol-7-yl)-2-(3-(methylamino)azetidin-1-yl)quinazolin-4-yl)-2,5-dimethyl-piperazin-1-yl) prop-2-en-1-one], the Binding % was “++ (++ indicates binding activity from 50 to 90%)”. In the case of `C=CC(=O)N1C[C@H](C)N(c2nc(OCCN3CCC(F)(F)C3)nc3c(F)c(-c4cc(O)cc5ccccc45)c(Cl)cc23)C[C@H]1C` [Compound 201, 1-((2R,5S)-4-(6-chloro-2-(2-(3,3-difluoropyrrolidin-1-yl)ethoxy)-8-fluoro-7-(3-hydroxynaphthalen-1-yl)quinazolin-4-yl)-2,5-dimethyl-piperazin-1-yl) prop-2-en-1-one], the Binding % is reported as “++ (++ indicates binding activity from 50 to 90%)”. In the case of `C=CC(=O)N1CCN(c2nc(N3CC(N(CC)CC)C3)nc3c(F)c(-c4c(O)cccc4F)c(Cl)cc23)C[C@H]1C` [Compound 164, 1-((2R)-4-(6-chloro-2-(3-(diethylamino)azetidin-1-yl)-8-fluoro-7-(2-fluoro-6-hydroxyphenyl)quinazolin-4-yl)-2-methyl-piperazin-1-yl) prop-2-en-1-one], the Binding % is reported as “++ (++ indicates binding activity from 50 to 90%)”. For `C=CC(=O)N1C[C@H](C)N(c2nc(N3CC(N(C)C)C3)nc3c(F)c(-c4c(O)cccc4F)c(Cl)cc23)C[C@@H]1C` [Compound 94, 1-((2S,5S)-4-(6-chloro-2-(3-(dimethylamino)azetidin-1-yl)-8-fluoro-7-(2-fluoro-6-hydroxyphenyl)quinazolin-4-yl)-2,5-dimethyl-piperazin-1-yl) prop-2-en-1-one], the Binding % was “+ (+ indicates binding activity greater than 0% and up to 50%)”. For `C=CC(=O)N1C[C@H](C)N(c2nc(Oc3cnn(C)c3)nc3c(F)c(-c4c(C)ccc5[nH]ncc45)c(Cl)cc23)C[C@H]1C` [Compound 217, 1-((2R,5S)-4-(6-chloro-8-fluoro-7-(5-methyl-1H-indazol-4-yl)-2-(1-methyl-1H-pyrazol-4-yloxy)quinazolin-4-yl)-2,5-dimethyl-piperazin-1-yl) prop-2-en-1-one], the Binding % was “++ (++ indicates binding activity from 50 to 90%)”.
